Calls of active or inactive are those of the source. No cut-off for these calls is given here.

The record followed here is ChEMBL document CHEMBL5647698, “Covalent-Allosteric Inhibitors to Achieve Akt Isoform-Selectivity” (Angew Chem Int Ed Engl, 2019).

For experiment [1], the target named is RAC-alpha serine/threonine-protein kinase (Homo sapiens, UniProt P31749). Briefly: biochemical.
Experiment [2] has as its target RAC-gamma serine/threonine-protein kinase (Homo sapiens, UniProt Q9Y243).
Description: Inhibition of wild-type AKT3 (unknown origin) by HTRF KinEASE assay
The test system of experiment [3] is PANC-1. Briefly: Downregulation of p-PRAS40 level at threonine 246 residue in Akt1 knockout human PANC-1 cells measured after 24 hrs by Western blotting analysis. The experiment is classed as functional, cell-based. Conditions: dose 0.3-5 µM.
The test system of experiment [4] is PANC-1. Briefly: Downregulation of p-AKT level at serine 473 residue in Akt1 knockout human PANC-1 cells measured after 24 hrs by Western blotting analysis. The class given is functional, cell-based. As to conditions: dose 0.3-5 µM.

Chain of RAC-alpha serine/threonine-protein kinase (P31749 whole entry): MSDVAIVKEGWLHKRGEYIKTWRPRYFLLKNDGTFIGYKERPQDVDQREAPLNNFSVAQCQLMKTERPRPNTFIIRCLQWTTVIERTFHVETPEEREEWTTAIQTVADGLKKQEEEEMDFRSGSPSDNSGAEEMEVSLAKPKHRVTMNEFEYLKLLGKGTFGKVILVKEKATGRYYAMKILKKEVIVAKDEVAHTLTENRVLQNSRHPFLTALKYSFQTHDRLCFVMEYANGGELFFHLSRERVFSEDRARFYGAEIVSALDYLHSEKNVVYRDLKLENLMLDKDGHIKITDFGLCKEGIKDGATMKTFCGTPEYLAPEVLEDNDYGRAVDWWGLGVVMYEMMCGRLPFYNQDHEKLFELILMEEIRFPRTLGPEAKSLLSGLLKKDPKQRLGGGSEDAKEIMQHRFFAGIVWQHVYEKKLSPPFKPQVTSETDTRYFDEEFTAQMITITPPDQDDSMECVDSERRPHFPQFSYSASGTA
Chain of RAC-gamma serine/threonine-protein kinase (Q9Y243 whole entry): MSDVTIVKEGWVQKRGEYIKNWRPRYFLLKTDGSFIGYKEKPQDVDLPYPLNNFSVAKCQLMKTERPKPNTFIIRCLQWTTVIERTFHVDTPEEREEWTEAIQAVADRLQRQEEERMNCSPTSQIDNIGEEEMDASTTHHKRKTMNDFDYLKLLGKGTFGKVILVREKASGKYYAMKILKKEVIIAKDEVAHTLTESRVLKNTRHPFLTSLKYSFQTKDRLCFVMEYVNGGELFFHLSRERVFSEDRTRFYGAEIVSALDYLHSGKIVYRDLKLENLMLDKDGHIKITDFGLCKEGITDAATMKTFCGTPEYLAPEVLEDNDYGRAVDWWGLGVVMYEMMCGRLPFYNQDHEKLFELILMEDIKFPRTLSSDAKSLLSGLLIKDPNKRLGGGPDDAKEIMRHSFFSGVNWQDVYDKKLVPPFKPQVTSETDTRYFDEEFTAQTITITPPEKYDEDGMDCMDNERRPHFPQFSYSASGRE

On to `CC(C)Cc1nc(-c2ccccc2)c(-c2ccc(CN3CCC(n4c(=O)[nH]c5ccc(N)cc54)CC3)cc2)[nH]c1=O`, for which, in experiment [1], the IC50 was found to be 2.83 µM. With `Nc1ccc2[nH]c(=O)n(C3CCN(Cc4ccc(-c5[nH]c(=O)c(Cc6ccc(O)cc6)nc5-c5ccccc5)cc4)CC3)c2c1`, the IC50 was 5.59 µM in experiment [1] and 17.7 µM in experiment [2]. For `C=CC(=O)Nc1ccc2[nH]c(=O)n(C3CCN(Cc4ccc(-c5nc6cc[nH]c(=O)c6cc5-c5ccccc5)cc4)CC3)c2c1`, the result in experiment [3] and in experiment [4] was Active. As to `C=CC(=O)Nc1ccc2[nH]c(=O)n(C3CCN(Cc4ccc(-c5[nH]c(=O)c(C)nc5-c5ccccc5)cc4)CC3)c2c1`, the result in experiment [3] and in experiment [4] was Active. With `C=CC(=O)Nc1ccc2[nH]c(=O)n(C3CCN(Cc4ccc(-c5[nH]c(=O)c(CC(C)C)nc5-c5ccccc5)cc4)CC3)c2c1`, the result in experiment [3] and in experiment [4] was Active.
